# Data: patent US20060093617A1, “Peptides for inducing a CTL and/or HTL response to hepatitis C virus” (Innogenetics, N.V., priority 2004, published 2006)
# Where a SMILES comes first, the peptide text is derived from it.
# Experiments:
# [1] = target: B*3501 (Homo sapiens, UniProt P01889, A329T/A93T/A95T/C349S/D201E/D98Y/E176V/E187L/E204Q/E69T/I218V/K202T/L119I/Q94N/R155S/R180L/S121R/S35A/S48A/T118I/V127L/V306I/V36M/Y140S/Y91F); test: Competition binding assay using soluble HLA class I; details: for Ki: HLA-B3501 section
# [2] = target: T1, HLA-Cw07 (Homo sapiens, UniProt P10321); test: HLA class I competition cell-based binding assay
# T1 construct: endogenous in cells
# [3] = target: T2, HLA-Cw06 (Homo sapiens, UniProt P10321, A176E/A330V/C350S/L171W/L180W/L218V/M285V/M309V/M331V/N104K/P208H/Q277E/Q291P/R121W/R243W/S101N/S123Y/S297R/T329A/T363A/V319A/V328M); test: HLA class I competition cell-based binding assay
# T2 construct: endogenous in cells
# [4] = target: T3, DRB1*0101 (Homo sapiens, UniProt P01903+P01911, A100R/D57E/F55L/F60I/F76Y/I96L/L162R/M171V/P40L/Q125E/R42F/V115G/Y59C); test: Competition binding assay using soluble HLA class II
# T3 construct: endogenous in cells; host or cells: cell lysate
# [5] = target: T4, DRB1*0301 (Homo sapiens, UniProt P01903+P01911, A100K/A102G/A103R/A169T/F55Y/I96L/K41T/L162R/M171V/P40S/Q125H/Q178H/Q39Y/R42S/S66N/T106N/T262R/W38E/Y61H); test: as above
# T4 construct: endogenous in cells; HLA-DR was extracted from cell lysates on an LB3.1 antibody column
# [6] = target: T5, B*0702 (Homo sapiens, UniProt P01889); test: Competition binding assay using soluble HLA class I
# T5 construct: endogenous in cells
# [7] = target: T6, HLA-A03 (Homo sapiens, UniProt P04439); test: as above; details: HLA-A1101 section; read-out: binds A0301 (asterisk in Ki column)
# T6 construct: endogenous in cells
compound,measurement,setting,value
CC[C@H](C)[C@H](NC(=O)[C@H](CCC(N)=O)NC(=O)CNC(=O)CNC(=O)CNC(=O)[C@@H]1CCCN1C(=O)[C@@H](N)Cc1ccccc1)C(=O)N[C@H](C(=O)NCC(=O)O)C(C)C,Ki,[1],2600 nM
CC[C@H](C)[C@H](NC(=O)[C@@H]1CCCN1C(=O)[C@@H](NC(=O)[C@H](C)NC(=O)[C@H](CCCCN)NC(=O)CNC(=O)[C@H](Cc1ccc(O)cc1)NC(=O)[C@@H](N)Cc1ccccc1)[C@@H](C)CC)C(=O)N[C@@H](CCC(=O)O)C(=O)N[C@H](C(=O)O)C(C)C,Ki,[2],31 nM
same,Ki,[3],5690 nM
CSCC[C@H](NC(=O)[C@H](CCCNC(=N)N)NC(=O)[C@H](Cc1c[nH]cn1)NC(=O)CN)C(=O)N[C@@H](C)C(=O)N[C@@H](Cc1c[nH]c2ccccc12)C(=O)N[C@@H](CC(=O)O)C(=O)N[C@@H](CCSC)C(=O)N[C@@H](CCSC)C(=O)N[C@@H](CCSC)C(=O)N[C@@H](CC(N)=O)C(=O)N[C@@H](Cc1c[nH]c2ccccc12)C(=O)N[C@@H](CO)C(=O)N1CCC[C@H]1C(=O)N[C@H](C(=O)O)[C@@H](C)O,IC50,[4],183 nM
same,IC50,[5],919 nM
CC[C@H](C)[C@H](NC(=O)[C@H](CC(N)=O)NC(=O)[C@H](CCC(N)=O)NC(=O)[C@@H](N)Cc1c[nH]cn1)C(=O)N[C@H](C(=O)N[C@@H](CC(=O)O)C(=O)N[C@H](C(=O)N[C@@H](CCC(N)=O)C(=O)N[C@@H](Cc1ccc(O)cc1)C(=O)O)C(C)C)C(C)C,Ki,[2],14200 nM
CC[C@H](C)[C@H](N)C(=O)N[C@@H](CCCNC(=N)N)C(=O)N[C@@H](CO)C(=O)N[C@@H](CC(C)C)C(=O)N[C@H](C(=O)N[C@@H](CCC(=O)O)C(=O)N[C@@H](CCCNC(=N)N)C(=O)N[C@@H](CC(C)C)C(=O)N[C@@H](Cc1ccc(O)cc1)C(=O)O)[C@@H](C)O,Ki,[2],25 nM
same,Ki,[3],318 nM
CC[C@H](C)[C@H](NC(=O)[C@H](Cc1ccc(O)cc1)NC(=O)[C@@H](N)CCCCN)C(=O)N[C@@H](CCSC)C(=O)N[C@@H](C)C(=O)N[C@@H](CS)C(=O)N[C@@H](CCSC)C(=O)N[C@@H](CO)C(=O)N[C@@H](C)C(=O)O,Ki,[2],7210 nM
CC(C)C[C@H](NC(=O)[C@H](CC(C)C)NC(=O)[C@@H]1CCCN1C(=O)[C@@H](NC(=O)[C@@H]1CCCN1C(=O)CNC(=O)[C@H](Cc1c[nH]cn1)NC(=O)[C@@H](N)CC(C)C)[C@@H](C)O)C(=O)N[C@@H](Cc1ccc(O)cc1)C(=O)O,Ki,[2],31 nM
CSCC[C@H](N)C(=O)NCC(=O)N[C@@H](CO)C(=O)N[C@@H](CO)C(=O)N[C@@H](Cc1ccc(O)cc1)C(=O)NCC(=O)N[C@@H](Cc1ccccc1)C(=O)N[C@@H](CCC(N)=O)C(=O)N[C@@H](Cc1ccc(O)cc1)C(=O)O,Ki,[1],2610 nM
CC[C@H](C)[C@H](NC(=O)[C@@H](N)CC(N)=O)C(=O)N[C@H](C(=O)N[C@@H](CC(=O)O)C(=O)N[C@H](C(=O)N[C@@H](CCC(N)=O)C(=O)N[C@@H](Cc1ccc(O)cc1)C(=O)N[C@@H](CC(C)C)C(=O)N[C@@H](Cc1ccc(O)cc1)C(=O)O)C(C)C)C(C)C,Ki,[2],56 nM
CC(C)[C@H](NC(=O)[C@H](CCCNC(=N)N)NC(=O)[C@H](C)NC(=O)[C@H](C)NC(=O)[C@H](C)NC(=O)[C@H](CC(=O)O)NC(=O)[C@H](CO)NC(=O)[C@H](CCC(=O)O)NC(=O)[C@@H]1CCCN1C(=O)[C@@H](NC(=O)[C@H](Cc1ccc(O)cc1)NC(=O)[C@H](Cc1c[nH]cn1)NC(=O)[C@@H](NC(=O)[C@@H]1CCCN1)[C@@H](C)O)C(C)C)C(=O)N[C@H](C(=O)O)[C@@H](C)O,IC50,[5],4950 nM
CC[C@H](C)[C@H](NC(=O)[C@@H]1CCCN1C(=O)[C@H](C)NC(=O)[C@H](CC(C)C)NC(=O)[C@H](CC(C)C)NC(=O)[C@@H](N)CCCNC(=N)N)C(=O)N[C@H](C(=O)N[C@@H](C)C(=O)N[C@@H](Cc1ccc(O)cc1)C(=O)O)[C@@H](C)O,Ki,[2],4820 nM
CC(C)C[C@H](NC(=O)[C@H](CCCNC(=N)N)NC(=O)[C@@H](NC(=O)[C@H](CO)NC(=O)[C@@H](NC(=O)[C@H](CCC(=O)O)NC(=O)[C@H](C)NC(=O)[C@@H]1CCCN1C(=O)[C@@H](N)[C@@H](C)O)[C@@H](C)O)C(C)C)C(=O)O,IC50,"[1]; Table 18, HLA-B7 binding peptides",1640 nM
same,IC50,[6],375 nM
same,Ki,"[6]; Ki (nM), HLA-B0702 section",375 nM
same,Ki,"[6]; binds B0702 with Ki < 1000 nM (asterisk), asterisk in the HLA-B3501 section",< 1000 nM
CC(C)C[C@H](NC(=O)[C@H](Cc1ccccc1)NC(=O)[C@H](CCCCN)NC(=O)CNC(=O)[C@H](Cc1ccc(O)cc1)NC(=O)[C@@H](NC(=O)[C@H](CO)NC(=O)[C@H](Cc1ccc(O)cc1)NC(=O)[C@@H](N)[C@@H](C)O)[C@@H](C)O)C(=O)O,Ki,[2],239 nM
same,Ki,[3],4860 nM
CSCC[C@H](NC(=O)[C@H](CC(C)C)NC(=O)[C@H](C)NC(=O)[C@H](CC(=O)O)NC(=O)[C@@H](NC(=O)[C@H](C)NC(=O)[C@@H](NC(=O)[C@@H](NC(=O)[C@@H](NC(=O)[C@@H](N)C(C)C)C(C)C)C(C)C)C(C)C)[C@@H](C)O)C(=O)N[C@H](C(=O)NCC(=O)N[C@@H](Cc1ccc(O)cc1)C(=O)N[C@H](C(=O)NCC(=O)O)[C@@H](C)O)[C@@H](C)O,IC50,[5],93 nM
N=C(N)NCCC[C@H](NC(=O)[C@H](CCC(N)=O)NC(=O)[C@@H](N)CC(=O)O)C(=O)N1CCC[C@H]1C(=O)N[C@@H](Cc1ccc(O)cc1)C(=O)N[C@@H](CS)C(=O)N[C@@H](Cc1c[nH]c2ccccc12)C(=O)N[C@@H](Cc1c[nH]cn1)C(=O)N[C@@H](Cc1ccc(O)cc1)C(=O)O (H-DQRPYCWHY-OH; N-terminus and C-terminus assumed),Ki,[2],710 nM
C[C@H](NC(=O)[C@H](CCC(=O)O)NC(=O)[C@@H]1CCCN1C(=O)[C@H](Cc1c[nH]cn1)NC(=O)[C@H](CCCCN)NC(=O)[C@H](CCCNC(=N)N)NC(=O)[C@@H](N)Cc1ccccc1)C(=O)N[C@H](C(=O)N[C@@H](Cc1ccc(O)cc1)C(=O)O)[C@@H](C)O (H-FRKHPEATY-OH; N-terminus and C-terminus assumed),Ki,[2],0.2 nM
CC(C)C[C@H](NC(=O)[C@H](CCCNC(=N)N)NC(=O)[C@@H]1CCCN1C(=O)CN)C(=O)NCC(=O)N[C@H](C(=O)N[C@@H](CCCNC(=N)N)C(=O)N[C@@H](C)C(=O)N[C@H](C(=O)N[C@@H](CCCNC(=N)N)C(=O)N[C@@H](CCCCN)C(=O)N[C@H](C(=O)N[C@@H](CO)C(=O)N[C@@H](CCC(=O)O)C(=O)N[C@@H](CCCNC(=N)N)C(=O)O)[C@@H](C)O)[C@@H](C)O)C(C)C (H-GPRLGVRATRKTSER-OH; N-terminus and C-terminus assumed),IC50,[5],18900 nM
CC[C@H](C)[C@H](NC(=O)[C@H](CC(C)C)NC(=O)[C@H](CCCNC(=N)N)NC(=O)[C@H](C)NC(=O)[C@@H]1CCCN1C(=O)[C@H](CCCCN)NC(=O)[C@H](CCCNC(=N)N)NC(=O)CN)C(=O)N[C@H](C(=O)N[C@@H](Cc1ccccc1)C(=O)O)C(C)C (H-GRKPARLIVF-OH),Ki,[2],753 nM
same,Ki,[3],8960 nM
CC(C)C[C@H](NC(=O)[C@H](C)NC(=O)CNC(=O)[C@H](C)NC(=O)[C@@H](NC(=O)CN)C(C)C)C(=O)N[C@H](C(=O)N[C@@H](C)C(=O)N[C@@H](Cc1ccccc1)C(=O)O)C(C)C (H-GVAGALVAF-OH; N-terminus and C-terminus assumed),Ki,[2],6160 nM
CSCC[C@H](NC(=O)CNC(=O)[C@H](CCC(=O)O)NC(=O)[C@H](CC(N)=O)NC(=O)CNC(=O)[C@H](Cc1ccc(O)cc1)NC(=O)[C@@H](N)CC(C)C)C(=O)NCC(=O)N[C@@H](Cc1c[nH]c2ccccc12)C(=O)N[C@@H](C)C(=O)O (H-LYGNEGMGWA-OH; N-terminus and C-terminus assumed),Ki,[2],5110 nM
CC[C@H](C)[C@H](NC(=O)[C@@H]1CCCN1C(=O)[C@H](CCC(N)=O)NC(=O)[C@@H](N)CCCNC(=N)N)C(=O)N1CCC[C@H]1C(=O)N[C@@H](CCCCN)C(=O)N[C@@H](C)C(=O)N[C@@H](CCCNC(=N)N)C(=O)N[C@@H](CCCNC(=N)N)C(=O)O (H-RQPIPKARR-OH),Ki,[7],< 1000 nM
CC(C)C[C@H](NC(=O)[C@@H](N)Cc1ccc(O)cc1)C(=O)N[C@@H](CC(C)C)C(=O)N1CCC[C@H]1C(=O)N[C@@H](CCCNC(=N)N)C(=O)N[C@@H](CCCNC(=N)N)C(=O)NCC(=O)N1CCC[C@H]1C(=O)N[C@@H](CCCNC(=N)N)C(=O)O (H-YLLPRRGPR-OH),Ki,[7],< 1000 nM
CC(C)C[C@H](NC(=O)[C@@H](NC(=O)CNC(=O)[C@H](CO)NC(=O)[C@H](C)NC(=O)[C@H](CCCNC(=N)N)NC(=O)[C@H](CS)NC(=O)[C@H](CCCNC(=N)N)NC(=O)[C@H](CCCNC(=N)N)NC(=O)[C@@H](N)Cc1ccc(O)cc1)C(C)C)C(=O)O (H-YRRCRASGVL-OH),Ki,[2],83 nM
CC[C@H](C)[C@H](NC(=O)[C@@H](NC(=O)[C@H](CO)NC(=O)[C@@H](NC(=O)[C@H](CC(=O)O)NC(=O)[C@H](CC(C)C)NC(=O)CNC(=O)[C@H](CCCNC(=N)N)NC(=O)[C@H](Cc1ccc(O)cc1)NC(=O)[C@@H](N)Cc1ccc(O)cc1)C(C)C)C(C)C)C(=O)O (H-YYRGLDVSVI-OH),Ki,[2],87 nM
